{"source": "patent US7449546B2", "about": "“Method for extending storage of glutathione solutions and methods for treating Parkinson's disease with said stored glutathione solutions” (Kromar Medical Corporation, priority 2001, dated 2008)", "key": {"liver cancer": {"tested_on": "liver cancer", "settings": "oral, daily amount of 5,000 mg, eight patients; cited from earlier work"}, "[1]": {"settings": "for [G-SH]/[G-SH]0: storage at 5° C."}, "[2]": {"settings": "for [G-SH]/[G-SH]0: storage at 25° C.", "experimental": "This solution was stored at room temperature (25° C.) for 74 days."}, "[3]": {"settings": "solution temperature lowered by 20° C. from room temperature"}}, "note": "Like-named read-outs stand apart in the source and are kept apart here."}
{"smiles": "N[C@@H](CCC(=O)N[C@@H](CS)C(=O)NCC(=O)O)C(=O)O", "note": "[reduced glutathione]", "values": [{"measurement": "effects in patients with liver cancer", "setting": "liver cancer", "result": "modest effects in women but not in men"}, {"measurement": "dimerization of glutathione", "setting": "[1]; [3]", "result": "essentially stopped"}, {"measurement": "storage period of the reduced glutathione solution", "setting": "[1]; [3]", "result": "significantly greater than four months"}, {"measurement": "[G-SH]/[G-SH]0", "setting": "[1]; 1 day, 189 mg/ml, pH 6.4", "result": 1.02}, {"measurement": "[G-SH]/[G-SH]0", "setting": "[1]; 2 days, 189 mg/ml, pH 6.4", "result": 1.01}, {"measurement": "[G-SH]/[G-SH]0", "setting": "[1]; 3 days, 189 mg/ml, pH 6.4", "result": 1.01}, {"measurement": "[G-SH]/[G-SH]0", "setting": "[1]; 7 days, 189 mg/ml, pH 6.4", "result": 1.02}, {"measurement": "[G-SH]/[G-SH]0", "setting": "[1]; 14 days, 189 mg/ml, pH 6.4", "result": 1.00}, {"measurement": "[G-SH]/[G-SH]0", "setting": "[1]; 21 days, 189 mg/ml, pH 6.4", "result": 0.99}, {"measurement": "[G-SH]/[G-SH]0", "setting": "[1]; 28 days, 189 mg/ml, pH 6.4", "result": 1.02}, {"measurement": "[G-SH]/[G-SH]0", "setting": "[1]; 56 days, 189 mg/ml, pH 6.4", "result": 1.00}, {"measurement": "[G-SH]/[G-SH]0", "setting": "[1]; 84 days, 189 mg/ml, pH 6.4", "result": 1.00}, {"measurement": "[G-SH]/[G-SH]0", "setting": "[1]; 112 days, 189 mg/ml, pH 6.4", "result": 0.98}, {"measurement": "decrease of reduced glutathione concentration over time", "setting": "[1]; stored at 5° C., monitored for four months, 189 mg/ml, 0.005M octylammonium orthophosphate, pH 6.4", "result": "no decrease over time"}, {"measurement": "concentration of reduced glutathione relative to its initial value", "setting": "[2]; room temperature (25° C.), within three weeks, 180 mg/ml, pH 6.4", "result": 90, "unit": "%"}, {"measurement": "safe storage time in aqueous solution", "setting": "[2]; room temperature, absence of oxidation catalysts, criterion at least 90% of initial concentration", "result": "cannot be safely stored in aqueous solution at room temperature for longer than three weeks"}, {"measurement": "[G-SH]/[G-SH]0", "setting": "[2]; 1 day, 180 mg/ml, pH 6.4", "result": 0.94}, {"measurement": "[G-SH]/[G-SH]0", "setting": "[2]; 2 days, 180 mg/ml, pH 6.4", "result": 0.99}, {"measurement": "[G-SH]/[G-SH]0", "setting": "[2]; 3 days, 180 mg/ml, pH 6.4", "result": 0.99}, {"measurement": "[G-SH]/[G-SH]0", "setting": "[2]; 7 days, 180 mg/ml, pH 6.4", "result": 0.98}, {"measurement": "[G-SH]/[G-SH]0", "setting": "[2]; 14 days, 180 mg/ml, pH 6.4", "result": 0.95}, {"measurement": "[G-SH]/[G-SH]0", "setting": "[2]; 21 days, 180 mg/ml, pH 6.4", "result": 0.90}, {"measurement": "[G-SH]/[G-SH]0", "setting": "[2]; 28 days, 180 mg/ml, pH 6.4", "result": 0.89}, {"measurement": "[G-SH]/[G-SH]0", "setting": "[2]; 56 days, 180 mg/ml, pH 6.4", "result": 0.78}, {"measurement": "[G-SH]/[G-SH]0", "setting": "[2]; 74 days, 180 mg/ml, pH 6.4", "result": 0.68}]}
